Values quoted from earlier work, collected in patent publication US20070077296A1, “Pharmaceutical Preparation containing Meloxicam” (priority 2005, published 2007).

**Q.** With `Cc1cnc(NC(=O)C2=C(O)c3ccccc3S(=O)(=O)N2C)s1` [meloxicam, 4-hydroxy-2-methyl-N-(5-methyl-2-thiazolyl)-2H-1,2-benzothiazine-3-carboxamide-1,1-dioxide] as the molecule, how does the solubility in water read?
**A.** hardly dissolve in water
